# Assays:
# [1] = tested on: Breast cancer cell lines; test: NCI in vitro anticancer activity (SRB assay), Breast panel; assay type: cell-based; details: Homo sapiens
# Experimental: (§1) The compound 6a was evaluated for in vitro anticancer activity against sixty human tumour cells derived from nine cancer panels (leukemia, non-small-cell lung, colon, CNS, melanoma, ovarian, prostate, renal and breast cancer) as shown in Table 4. For compound 6a, dose response curves for each cell line were measured at a minimum of five concentrations at 10 fold dilutions. A protocol of 48 h continuous drug exposure was used and a sulforhodamine B (SRB) protein assay was used to estimate cell viability or growth. The concentration causing 50% cell growth inhibition (GI50), total cell growth inhibition (TGI 0% growth) and 50% cell death (LC50, […]) compared with the control was calculated.
# (§2) Each cancer type represents the average of six to nine different cancer cell lines.
# [2] = tested on: Melanoma cancer cell lines; test: NCI in vitro anticancer activity (SRB assay), Melanoma panel; assay type: cell-based; details: Homo sapiens
# Experimental: as §1, §2
# [3] = tested on: Lung A-549; assay type: cell-based; details: human
# Text: (§3) The compounds 6a-c (n=1-3) were examined for preliminary in vitro cytotoxicity on six cell lines, among these compound's 6a has shown promising activity as shown in Table 2 and was further taken up detailed in vitro anticancer activity at the National Cancer Institute, Maryland, USA.
# [4] = tested on: Liver HEP-2; assay type: cell-based; details: human
# Text: as §3
# [5] = tested on: Colon HCT-15; assay type: cell-based; details: human
# Text: as §3
# [6] = tested on: Colon 502713; assay type: cell-based; details: human
# Text: as §3
# [7] = tested on: Neuroblastoma IMR-32; assay type: cell-based; details: human
# Text: as §3
# [8] = tested on: Ovary OVCAR-5; assay type: cell-based; details: human
# Text: as §3
# [9] = tested on: Renal cancer cell lines; test: NCI in vitro anticancer activity (SRB assay), Renal panel; assay type: cell-based; details: Homo sapiens
# Experimental: as §1, §2
# [10] = tested on: Prostate cancer cell lines; test: NCI in vitro anticancer activity (SRB assay), Prostate panel; assay type: cell-based; details: Homo sapiens
# Experimental: as §1, §2
# [11] = tested on: Ovarian cancer cell lines; test: NCI in vitro anticancer activity (SRB assay), Ovarian panel; assay type: cell-based; details: Homo sapiens
# Experimental: as §1, §2
# [12] = tested on: duplex-form calf thymus DNA (CT-DNA); test: Thermal denaturation studies with calf thymus DNA; assay type: binding; details: [PBD]:[DNA] molar ratio 1:5, CT-DNA 100 μM, ligand 20 μM, sodium phosphate buffer pH 7.00; for ΔTm after incubation at 37° C. for 0 h: 0 h incubation at 37° C.; for ΔTm after incubation at 37° C. for 18 h: 18 h incubation at 37° C.
# Experimental: Compounds have been subjected to thermal denaturation studies with duplex-form calf thymus DNA (CT-DNA) using a modification of a reported procedure (Newman, M. S. Carcinog-compr. Surv. 1976, 1, 203; (b) Hecht, S. S.; Loy, M.; Hoffman, Carcinog-compr. Surv. 1976, 1, 325). Working solutions in aqueous buffer (10 mM NaH2PO4/Na2HPO4, 1 mM Na2EDTA, pH 7.00+0.01) containing CT-DNA (100 μm in phosphate) and the PBD (20 μm) have been prepared by addition of concentrated PBD solutions in DMSO to obtain a fixed [PBD]/[DNA] molar ratio of 1:5. The DNA-PBD solutions have been incubated at 37° C. for 0 and 18 h prior to analysis. Samples have been monitored at 260 nm using a Beckman DU-800 spectrophotometer fitted with high performance temperature controller, and heated at 1° C. min^−1 in the 40-110° C. range. DNA helix→coil transition temperatures (Tm) have been obtained from the maxima in the d(A260)/dT derivative plots. Drug-induced alterations in DNA melting behavior are given by: ΔTm=Tm(DNA+PBD)−Tm(DNA alone), where the Tm value for the PBD-free CT-DNA is 69.1±0.01.
# The DNA binding activity for these new C8-linked phenanthrylphenol-PBD hybrids has been examined by thermal denaturation studies using calf thymus (CT) DNA. […] The data for the compounds 6a-c is included in Table 1 for comparison.
# [13] = tested on: Colon cancer cell lines; test: NCI in vitro anticancer activity (SRB assay), Colon panel; assay type: cell-based; details: Homo sapiens
# Experimental: as §1, §2
# [14] = tested on: CNS cancer cell lines; test: NCI in vitro anticancer activity (SRB assay), CNS panel; assay type: cell-based; details: Homo sapiens
# Experimental: as §1, §2
# [15] = tested on: Leukemia cancer cell lines; test: NCI in vitro anticancer activity (SRB assay), Leukemia panel; assay type: cell-based; details: Homo sapiens
# Experimental: as §1, §2
# [16] = tested on: Non-small-cell-lung cancer cell lines; test: NCI in vitro anticancer activity (SRB assay), Non-small-cell-lung panel; assay type: cell-based; details: Homo sapiens
# Experimental: as §1, §2
# [17] = tested on: sixty human tumour cells derived from nine cancer panels; test: NCI in vitro anticancer activity (SRB assay), mean graph midpoints over sixty cell lines; assay type: cell-based
# Experimental: as §1
# [18] = 48 h, read-out: Log10 LC50 (concentration in mol/L causing 50% lethality) (converted)
smiles,measurement,setting,value
"COc1cc2c(cc1OCCCOc1ccc(-c3cc4ccccc4c4ccccc34)cc1)N=C[C@@H]1CCCN1C2=O [Compound 6a, (11aS)-7-methoxy-8-3-[4-(9-phenanthryl)phenoxy]propoxy-2,3,5,11a-tetrahydro-1H-benzo[e]pyrrolo[1,2-a][1,4]diazepin-5-one]",LC50 (50% lethal concentration),[1]; [18],8710 nM
same,GI50,"[1]; Breast panel average, 48 h exposure, SRB, read-out: Log10 GI50 (concentration in mol/L) (converted)",339 nM
same,LC50,[2]; [18],4680 nM
same,GI50,"[2]; Melanoma panel average, 48 h exposure, SRB, read-out: Log10 GI50 (concentration in mol/L) (converted)",692 nM
same,"Preliminary in vitro cytotoxicity data, Lung A-549",[3],88
same,"Preliminary in vitro cytotoxicity data, Liver HEP-2",[4],58
same,"Preliminary in vitro cytotoxicity data, Colon HCT-15",[5],99
same,"Preliminary in vitro cytotoxicity data, Colon 502713",[6],69
same,"Preliminary in vitro cytotoxicity data, Neuroblastoma IMR-32",[7],85
same,"Preliminary in vitro cytotoxicity data, Ovary OVCAR-5",[8],98
same,LC50 (50% lethal concentration),[9]; [18],3630 nM
same,GI50,"[9]; Renal panel average, 48 h exposure, SRB, read-out: Log10 GI50 (concentration in mol/L) (converted)",490 nM
same,LC50 (concentration causing 50% tumour cell death),[10]; [18],3890 nM
same,GI50,"[10]; Prostate panel average, 48 h exposure, SRB, read-out: Log10 GI50 (concentration in mol/L) (converted)",398 nM
same,CC50,[11]; [18],3720 nM
same,GI50,"[11]; Ovarian panel average, 48 h exposure, SRB, read-out: Log10 GI50 (concentration in mol/L) (converted)",501 nM
same,ΔTm after incubation at 37° C. for 0 h,[12],1.0 °C
same,ΔTm after incubation at 37° C. for 18 h,[12],1.8 °C
same,CC50,[13]; [18],4900 nM
same,GI50,"[13]; Colon panel average, 48 h exposure, SRB, read-out: Log10 GI50 (concentration in mol/L) (converted)",776 nM
same,LC50,[14]; [18],4680 nM
same,GI50,"[14]; CNS panel average, 48 h exposure, SRB, read-out: Log10 GI50 (concentration in mol/L) (converted)",813 nM
same,CC50,[15]; [18],15100 nM
same,GI50,"[15]; Leukemia panel average, 48 h exposure, SRB, read-out: Log10 GI50 (concentration in mol/L) (converted)",195 nM
same,LC50,[16]; [18],5370 nM
same,GI50,"[16]; Non-small-cell-lung panel average, 48 h exposure, SRB, read-out: Log10 GI50 (concentration in mol/L) (converted)",776 nM
same,Log10 TGI mean graph midpoint (MG_MID),"[17]; 48 h continuous drug exposure, SRB assay, mean over human tumour cell lines",−5.76
same,GI50,"[17]; 48 h continuous drug exposure, SRB assay, mean over human tumour cell lines, read-out: Log10 GI50 mean graph midpoint (MG_MID) (converted)",525 nM
same,CC50,"[17]; Homo sapiens, 48 h, read-out: Log10 LC50 mean graph midpoint (MG_MID) (converted)",5500 nM
"COc1cc2c(cc1OCCCCOc1ccc(-c3cc4ccccc4c4ccccc34)cc1)N=C[C@@H]1CCCN1C2=O [Compound 6b, (11aS)-7-methoxy-8-4-[4-(9-phenanthryl)phenoxy]butoxy-2,3,5,11a-tetrahydro-1H-benzo[e]pyrrolo[1,2-a][1,4]diazepin-5-one]","Preliminary in vitro cytotoxicity data, Lung A-549",[3],50
same,"Preliminary in vitro cytotoxicity data, Liver HEP-2",[4],49
same,"Preliminary in vitro cytotoxicity data, Colon HCT-15",[5],77
same,"Preliminary in vitro cytotoxicity data, Colon 502713",[6],72
same,"Preliminary in vitro cytotoxicity data, Neuroblastoma IMR-32",[7],67
same,"Preliminary in vitro cytotoxicity data, Ovary OVCAR-5",[8],93
same,ΔTm after incubation at 37° C. for 0 h,[12],0.3 °C
same,ΔTm after incubation at 37° C. for 18 h,[12],0.5 °C
"COc1cc2c(cc1OCCCCCOc1ccc(-c3cc4ccccc4c4ccccc34)cc1)N=C[C@@H]1CCCN1C2=O [Compound 6c, (11aS)-7-methoxy-8-(5-[4-(9-phenanthryl)phenoxy]pentyloxy)-2,3,5,11a-tetrahydro-1H-benzo[e]pyrrolo[1,2-a][1,4]diazepin-5-one]","Preliminary in vitro cytotoxicity data, Lung A-549",[3],36
same,"Preliminary in vitro cytotoxicity data, Liver HEP-2",[4],65
same,"Preliminary in vitro cytotoxicity data, Colon HCT-15",[5],79
same,"Preliminary in vitro cytotoxicity data, Colon 502713",[6],74
same,"Preliminary in vitro cytotoxicity data, Neuroblastoma IMR-32",[7],73
same,"Preliminary in vitro cytotoxicity data, Ovary OVCAR-5",[8],98
same,ΔTm after incubation at 37° C. for 0 h,[12],0.1 °C
same,ΔTm after incubation at 37° C. for 18 h,[12],0.2 °C
"COc1cc2c(cc1O)N=CC1CCCN1C2=O (centres unmarked) [DC-81, reference compound]",ΔTm after incubation at 37° C. for 0 h,[12],0.3 °C
same,ΔTm after incubation at 37° C. for 18 h,[12],0.7 °C

# Source: patent publication US8217167B2, “Phenanthrylphenol linked pyrrolo [2, l-c] [l, 4] benzodiazepine hybrids as potential antitumour agents and process for the preparation thereof” (Council of Scientific & Industrial Research, priority 2008, dated 2012)
